Data on 14 molecules can be found in patent US7351700B2, “Aminomethylpyrimidines as allosteric enhancers of the GABAB receptors” (Hoffmann-La Roche Inc., priority 2004, dated 2008).

The conditions of data set [1]: PO, cited from earlier work.
The conditions of data set [2]: rats; cited from earlier work.
A further data set concerns the target T1, human GABABR1aR2a (Homo sapiens, UniProt O75899+Q9UBS5).
T1 construct: expressed in transfected cells
Kind of data set: Intracellular Ca2+ mobilization assay (FLIPR) in CHO-GABABR1aR2a-Gα16 cell. In kind it is cell-based. The following applies: for GABA shift Log [EC50(GABA + 10 μM cp)/EC50(GABA alone)]: 10 μM enhancer applied 15 min before GABA (0.0003-30 μM); for Emax: enhancer 0.001-30 μM in presence of 10 nM GABA (EC10), normalized to 10 μM GABA = 100%, 10 nM GABA = 0%, read-out: Emax (%) at 10 nM GABA alone = 0% 10 μM GABA alone = 100%; for EC50: enhancer concentration-response in presence of 10 nM GABA. How it is done:
Intracellular Ca^2+ Mobilization Assay
The Chinese Hamster Ovary (CHO) cells stably expressing human GABABR1aR^2a and Gα16 were seeded at 5×10^4 cells/well in the poly-D-lysine treated, 96-well, black/clear-bottomed plates (BD Biosciences, Palo Alto, Calif.). 24 h later, the cells were loaded for 90 min at 37° C. with 4 μM Flou-4 acetoxymethyl ester (Catalog No. F-14202, Molecular Probes, Eugene, Oreg.) in loading buffer (1×HBSS, 20 mM HEPES, 2.5 mM Probenecid). Hanks' Balanced Salt Solution (HBSS) (10×) (catalog No. 14065-049) and HEPES (1M) (catalog No. 15630-056) were purchased from Invitrogen, Carlsbad, Calif. Probenecid (250 mM) (catalog No. P8761) was from Sigma, Buchs, Switzerland. The cells were washed five times with loading buffer to remove excess dye and intracellular calcium mobilization, [Ca^2+ ]i were measured using a Fluorometric Imaging Plate Reader (FLIPR, Molecular Devices, Menlo Park, Calif.) as described previously (Porter et al., Br. J. Pharmacol., 128, 13-20, 1999). The enhancers were applied 15 min before the application of the GABA. For GABA shift assay, concentration-response curves of GABA (0.0003-30 μM) were determined in the absence and presence of 10 μM enhancer. The GABA-shift is defined as Log [EC50 (GABA+10 μM enhancer)/EC50 (GABA alone)]. The % maximum enhancing effect (% Emax) potency (EC50 value) of each enhancer was determined from concentration-response curve of the enhancer (0.001-30 μM) in the presence of 10 nM (GABA) (EC10). Responses were measured as peak increase in fluorescence minus basal, normalized to the maximal stimulatory effect induced by 10 μM GABA alone (considered 100%) and 10 nM GABA alone (considered 0%). The data were fitted with the equation Y=100+(Max −100)/(1+(EC50/[drug])^n) where Max is the maximum effect, EC50 the concentration eliciting a half-maximum effect and n the Hill slope.

For data set [3] the following is noted: elevated plus maze (rat), elevated zero maze (mice and rats), stress-induced hyperthermia (mice); cited from earlier work.
For data set [4] the following is noted: passive avoidance behavioral test in mice and rats; cited from earlier work.

As a reminder, the Emax is the size of the effect at its maximum, as opposed to the concentration needed. For orientation: EC50 means the midpoint of the concentration-response curve.

T1 sequence (Q9UBS5 15-961 limits assumed): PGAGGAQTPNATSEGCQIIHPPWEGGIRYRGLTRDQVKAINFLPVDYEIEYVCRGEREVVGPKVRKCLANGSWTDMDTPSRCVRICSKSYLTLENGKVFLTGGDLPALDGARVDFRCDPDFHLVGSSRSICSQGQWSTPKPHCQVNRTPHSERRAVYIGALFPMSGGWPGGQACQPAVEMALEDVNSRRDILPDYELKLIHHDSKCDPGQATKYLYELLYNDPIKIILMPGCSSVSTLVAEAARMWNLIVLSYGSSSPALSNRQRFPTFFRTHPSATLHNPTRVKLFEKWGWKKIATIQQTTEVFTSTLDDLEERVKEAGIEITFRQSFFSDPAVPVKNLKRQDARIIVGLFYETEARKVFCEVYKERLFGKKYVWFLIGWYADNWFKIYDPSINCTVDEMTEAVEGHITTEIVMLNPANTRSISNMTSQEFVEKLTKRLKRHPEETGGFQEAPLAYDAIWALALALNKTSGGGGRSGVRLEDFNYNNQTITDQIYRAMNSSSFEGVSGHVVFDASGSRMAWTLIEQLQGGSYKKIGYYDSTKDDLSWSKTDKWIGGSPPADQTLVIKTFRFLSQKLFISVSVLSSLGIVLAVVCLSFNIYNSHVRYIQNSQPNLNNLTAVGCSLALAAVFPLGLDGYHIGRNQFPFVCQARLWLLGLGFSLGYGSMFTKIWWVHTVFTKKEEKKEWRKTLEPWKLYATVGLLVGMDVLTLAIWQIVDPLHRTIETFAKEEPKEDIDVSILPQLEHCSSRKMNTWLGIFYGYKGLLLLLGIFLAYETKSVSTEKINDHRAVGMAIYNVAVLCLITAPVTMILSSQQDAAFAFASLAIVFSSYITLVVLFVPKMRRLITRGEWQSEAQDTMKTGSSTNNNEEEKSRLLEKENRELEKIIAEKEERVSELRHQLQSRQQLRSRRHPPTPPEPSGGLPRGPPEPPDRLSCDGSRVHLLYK
T1 sequence (O75899 42-941): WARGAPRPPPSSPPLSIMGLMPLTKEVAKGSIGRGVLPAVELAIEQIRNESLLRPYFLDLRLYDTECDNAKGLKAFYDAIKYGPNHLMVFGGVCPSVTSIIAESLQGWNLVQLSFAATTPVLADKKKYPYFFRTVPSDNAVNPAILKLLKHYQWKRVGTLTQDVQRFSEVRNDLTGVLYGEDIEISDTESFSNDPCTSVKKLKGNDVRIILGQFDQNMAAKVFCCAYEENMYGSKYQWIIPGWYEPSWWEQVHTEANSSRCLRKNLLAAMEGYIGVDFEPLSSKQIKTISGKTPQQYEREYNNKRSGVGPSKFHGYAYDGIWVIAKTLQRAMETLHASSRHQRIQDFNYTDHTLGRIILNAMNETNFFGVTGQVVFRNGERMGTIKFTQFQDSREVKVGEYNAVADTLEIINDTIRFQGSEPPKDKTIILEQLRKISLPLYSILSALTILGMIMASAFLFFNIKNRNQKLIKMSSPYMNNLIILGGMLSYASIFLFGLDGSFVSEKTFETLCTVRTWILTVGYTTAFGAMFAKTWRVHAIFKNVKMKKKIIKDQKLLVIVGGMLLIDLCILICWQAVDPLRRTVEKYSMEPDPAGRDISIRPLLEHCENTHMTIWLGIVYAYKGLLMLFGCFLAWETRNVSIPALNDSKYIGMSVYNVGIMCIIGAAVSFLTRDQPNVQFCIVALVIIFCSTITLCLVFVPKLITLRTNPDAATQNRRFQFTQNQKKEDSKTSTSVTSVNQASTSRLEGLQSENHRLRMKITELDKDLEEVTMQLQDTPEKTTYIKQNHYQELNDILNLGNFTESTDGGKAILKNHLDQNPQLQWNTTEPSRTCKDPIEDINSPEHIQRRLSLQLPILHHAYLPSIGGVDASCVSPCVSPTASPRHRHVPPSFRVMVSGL

As to `NCC(CC(=O)O)c1ccc(Cl)cc1` (stereo not drawn) [Baclofen, β-chlorophenyl GABA], the “side effects (spontaneous locomotor activity, rotarod, body temperature, traction test)” value in data set [1] (2.5-15 mg/kg) is recorded as “showed these side effects”.
Turning to `CC(C)(CO)Cc1cc(C(C)(C)C)c(O)c(C(C)(C)C)c1` [CGP7930, 2,6-di-tert-butyl-4-(3-hydroxy-2,2-dimethyl-propyl)-phenol], in data set [2], the decreasing cocaine self-administration result is reported as “effective”.
Take `CCCCCCSc1nc(C)cc(CN2CCOCC2)n1` [Example 1, 4-(2-Hexylsulfanyl-6-methyl-pyrimidin-4-ylmethyl)-morpholine]: on human GABABR1aR2a, the “GABA shift Log [EC50(GABA + 10 μM cp)/EC50(GABA alone)]” value (“GABA shift Log” for short) is recorded as −0.75, the maximal effect (Emax) came out at 46% and the concentration for a half-maximal effect (EC50) was determined as 2.2 µM.
The matching figures for `CCCCCSc1nc(C)cc(CN2CCOCC2)n1` [Example 2, 4-(6-Methyl-2-pentylsulfanyl-pyrimidin-4-ylmethyl)-morpholine]: −0.55, 52% and 1.7 µM.
Regarding `Cc1cc(CN2CCOCC2)nc(SCc2ccc(C(C)(C)C)cc2)n1` [Example 11, 4-[2-(4-tert-Butyl-benzylsulfanyl)-6-methyl-pyrimidin-4-ylmethyl]-morpholine], on human GABABR1aR2a, the “GABA shift Log” value is listed as −0.60, the Emax was determined as 41% and the concentration giving a half-maximal response (EC50) worked out at 4.2 µM.
Take `CCCCCCSc1nc(C)cc(CN2CCCC2)n1` [Example 16, 2-Hexylsulfanyl-4-methyl-6-pyrrolidin-1-ylmethyl-pyrimidine]: at human GABABR1aR2a, the “GABA shift Log” value is −0.50, the Emax amounted to 48% and the EC50 came out at 8.5 µM.
As for `CCCCCCSc1nc(C)cc(CN2CCCCC2C)n1` (stereo not drawn) [Example 31, 2-Hexylsulfanyl-4-methyl-6-(2-methyl-piperidin-1-ylmethyl)-pyrimidine], at human GABABR1aR2a, the “GABA shift Log” value is on record as −0.69, the Emax stood at 60% and the concentration for a half-maximal effect (EC50) stood at 9.6 µM.
As for `CCCCCCSc1nc(C)cc(CN2C[C@@H]3C[C@@H](C2)c2cccc(=O)n2C3)n1` [Example 35, (1S,5S)-3-(2-Hexylsulfanyl-6-methyl-pyrimidin-4-ylmethyl)-1,2,3,4,5,6-hexahydro-1,5-methano-pyrido [1,2-a][1,5]diazocin-8-one], at human GABABR1aR2a, the “GABA shift Log” value is on record as −0.92, the maximum response (Emax) stood at 62% and the EC50 was determined as 1.8 µM.
On the same counts, the results for `CCCCCCSc1nc(C)cc(CN2C(C)CCCC2C)n1` (stereo not drawn) [Example 37, 4-(2,6-Dimethyl-piperidin-1-ylmethyl)-2-hexylsulfanyl-6-methyl-pyrimidine] are −0.76, 74.2% and 8.2 µM.
On the same counts, the results for `CCCCCCSc1nc(C)cc(CN2[C@H](C)CCC[C@@H]2C)n1` [Example 38, 4-(cis-2,6-Dimethyl-piperidin-1-ylmethyl)-2-hexylsulfanyl-6-methyl-pyrimidine] are −0.71, 61% and 6.3 µM.
For the molecule `CCCCCCSc1nc(CN2CCOCC2)cc(C(F)(F)F)n1` [Example 39, 4-(2-Hexylsulfanyl-6-trifluoromethyl-pyrimidin-4-ylmethyl)-morpholine], on human GABABR1aR2a, the “GABA shift Log” value is on record as −0.48, the Emax stood at 62% and the EC50 came to 6.4 µM.
The matching figures for `CCCCCCSc1nc(CC)cc(CN2CCOCC2)n1` [Example 41, 4-(2-Hexylsulfanyl-6-ethyl-pyrimidin-4-ylmethyl)-morpholine]: −0.86, 60% and 4.1 µM.
On the same counts, the results for `CCCCCCSc1nc(C)cc(C(C)N2CCOCC2)n1` (stereo not drawn) [Example 43, 4-[1-(2-Hexylsulfanyl-6-methyl-pyrimidin-4-yl)-ethyl]-morpholine] are −0.70, 49% and 4.4 µM.
Consider `CSc1nc(NC2CCCC2)c([N+](=O)[O-])c(NC2CCCC2)n1` [GS39783, N,N_-dicyclopentyl-2-methylsulfanyl-5-nitro-pyrimidine-4,6-diamine], for which the decreasing cocaine self-administration entry in data set [2] was “effective”. Besides, the “effect on spontaneous locomotor activity, rotarod, body temperature and traction test” value in data set [1] (0.1-200 mg/kg) is given as “no effect”. The anxiolytic-like effects entry in data set [3] is given as “exhibited anxiolytic-like effects”. The “effect on cognition performance” value in data set [4] was “did not have any effect”.
